Assay [1] deals with T1, chitin synthase 1 of Candida albicans chs2 Δ chs 3 Δ (Candida albicans, UniProt P23316).
T1 construct: Crude enzyme was prepared using the Candida albicans chs2 Δ chs 3 Δ mutant; endogenous in cells; host or cells: Candida albicans chs2Δ/chs2Δ chs3Δ/chs3Δ mutant; 130,000 x g membrane pellet
Nature of the assay: In vitro enzyme assay for chitin synthase 1 of Candida albicans (enzyme 1). The format is biochemical. The conditions noted are these: relative to polyoxin D (50% inhibitory activity = value 5). The method, boiled down:
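Crude membrane enzyme from the C. albicans chs2Δ chs3Δ strain was trypsin-activated for 15 min at 30 °C. Reaction: 32 mM Tris-HCl pH 7.5, 2 mM cobalt acetate, 1.1 mM UDP-[14C]GlcNAc, 90 min at 30 °C; TCA-insoluble radioactivity counted. Scored 1–8 by relative polyoxin D concentration (5 = equal).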

Assay [2] deals with T2, chitin synthase 2 of Saccharomyces cerevisiae ECY38-38A(pAS6) (Saccharomyces cerevisiae, UniProt P14180).
T2 construct: made in house; host or cells: Saccharomyces cerevisiae ECY38-38A (chs1-23 chs2::LEU2 cal1/csd2) carrying plasmid pAS6, grown in galactose medium; 130,000 x g membrane pellet
T2 sequence (P14180 whole entry): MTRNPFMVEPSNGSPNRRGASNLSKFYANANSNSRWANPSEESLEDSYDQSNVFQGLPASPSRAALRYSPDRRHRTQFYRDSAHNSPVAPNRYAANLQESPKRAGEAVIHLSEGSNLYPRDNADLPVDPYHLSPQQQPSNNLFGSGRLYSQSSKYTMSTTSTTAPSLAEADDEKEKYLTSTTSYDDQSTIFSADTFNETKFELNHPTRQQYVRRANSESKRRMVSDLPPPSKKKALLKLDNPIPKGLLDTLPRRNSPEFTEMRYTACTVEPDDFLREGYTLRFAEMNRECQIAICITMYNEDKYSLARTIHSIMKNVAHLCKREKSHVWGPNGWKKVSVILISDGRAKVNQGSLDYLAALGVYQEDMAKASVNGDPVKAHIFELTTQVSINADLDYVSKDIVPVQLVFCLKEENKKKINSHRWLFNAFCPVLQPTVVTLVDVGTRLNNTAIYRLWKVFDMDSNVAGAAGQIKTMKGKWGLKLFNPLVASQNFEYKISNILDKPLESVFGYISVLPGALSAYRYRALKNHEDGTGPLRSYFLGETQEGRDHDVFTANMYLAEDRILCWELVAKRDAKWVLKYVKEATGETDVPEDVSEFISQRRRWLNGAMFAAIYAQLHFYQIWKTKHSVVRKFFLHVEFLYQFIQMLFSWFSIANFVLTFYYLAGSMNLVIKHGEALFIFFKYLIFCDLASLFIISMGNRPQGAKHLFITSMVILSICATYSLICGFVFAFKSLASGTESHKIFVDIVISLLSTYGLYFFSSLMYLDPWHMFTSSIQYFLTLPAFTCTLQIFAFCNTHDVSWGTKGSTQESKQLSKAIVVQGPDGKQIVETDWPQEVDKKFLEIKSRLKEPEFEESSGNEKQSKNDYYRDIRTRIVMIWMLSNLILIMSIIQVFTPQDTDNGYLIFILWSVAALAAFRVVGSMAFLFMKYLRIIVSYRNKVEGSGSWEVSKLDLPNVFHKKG
In words: In vitro enzyme assay for chitin synthase 2 of Saccharomyces cerevisiae (enzyme 2). The format is biochemical. The conditions noted are these: relative to polyoxin D (50% inhibitory activity = value 5). In outline:
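Crude membrane chitin synthase 2 came from S. cerevisiae ECY38-38A(pAS6), expressing only CHS2, and was trypsin-activated (15 min, 30 °C) then trypsin-inhibited. The reaction ran in 32 mM Tris-HCl pH 7.5, 2 mM cobalt acetate, 1.1 mM UDP-[14C]-GlcNAc, 90 min at 30 °C. TCA-precipitated product was counted by scintillation; scores 1–8 reflect concentration relative to polyoxin D's 50% inhibition (score 5).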

Assay [3] concerns Aspergillus flavus ATCC 64025. Nature of the assay: In vitro antifungal activity (MIC), NCCLS method. The format is cell-based. Conditions: 48 hours. In outline: (§1)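 Test samples were serially diluted two-fold, then inoculated with fungus to a final cell density of 5×10^2 to 2.5×10^3 cell/mL, following the NCCLS method. Plates were cultured for 48 hours and the minimum inhibitory concentration recorded.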

In assay [4] the test system is Aspergillus fumigatus ATCC 16424. In words: In vitro antifungal activity (MIC), NCCLS method. The format is cell-based. The conditions noted are these: 48 hours. The method, boiled down: as §1
For assay [5], the system named is Aspergillus terreus ATCC 46941. Nature of the assay: In vitro antifungal activity (MIC), NCCLS method. Conditions: 48 hours. The format is cell-based. The method, boiled down:
as §1

Assay [6] deals with Candida albicans A207 (clinical isolate). In words: In vitro antifungal activity (MIC), NCCLS method. The format is cell-based. Conditions: 48 hours. In outline:
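Two-fold dilutions, final inoculum 5×10^2–2.5×10^3 cell/mL, NCCLS protocol; 48 h culture for these strains. MIC = minimum inhibitory concentration.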

Assay [7] relates to Candida albicans ATCC 10231. In words: In vitro antifungal activity (MIC), NCCLS method. The conditions noted are these: 48 hours. The format is cell-based. In outline: (§2)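 Broth MIC by NCCLS two-fold dilution, final inoculum 5×10^2 to 2.5×10^3 cell/mL. Candida and Mucor strains incubated 48 hours.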
Assay [8] has as its system Candida glabrata ATCC 48435. In words: In vitro antifungal activity (MIC), NCCLS method. The format is cell-based. Conditions: Candida glabrata ATCC 48435; 48 hours. The method, boiled down:
as §2

A further assay deals with Candida krusei ATCC 6258. In words: In vitro antifungal activity (MIC), NCCLS method. The format is cell-based. The conditions noted are these: 48 hours. In outline: as §2
Assay [9] relates to Candida lusitaniae ATCC 42720. In words: In vitro antifungal activity (MIC), NCCLS method. The conditions noted are these: 48 hours. The format is cell-based. The method, boiled down: as §2
In assay [10] the test system is Candida parapsilosis ATCC 34136. Nature of the assay: In vitro antifungal activity (MIC), NCCLS method. The format is cell-based. The conditions noted are these: Candida parapsilosis ATCC 34136; 48 hours. The method, boiled down: as §2
Assay [11] relates to Candida tropicalis ATCC 13803. In words: In vitro antifungal activity (MIC), NCCLS method. The format is cell-based. Conditions: 48 hours. In outline:
as §2

In assay [12] the test system is Cryptococcus neoformans ATCC 36556. Nature of the assay: In vitro antifungal activity (MIC), NCCLS method. The format is cell-based. Conditions: RPMI 1640 medium, 72 hours. In outline:
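Broth microdilution per NCCLS: two-fold serial dilutions of test compound inoculated with fungal suspension at a final 5×10^2 to 2.5×10^3 cell/mL. Strains other than Cryptococcus neoformans were incubated 48 hours before MIC reading.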

The test system of assay [13] is Mucor ramosissimus ATCC 90286. In words: In vitro antifungal activity (MIC), NCCLS method. The format is cell-based. Conditions: 48 hours. The method, boiled down: as §2

From patent US7915276B2, “Berberrubine derivatives having antifungal activities” (priority 2006, dated 2011) come the findings set out here.

T1 sequence (P23316 whole entry, stated change not applied): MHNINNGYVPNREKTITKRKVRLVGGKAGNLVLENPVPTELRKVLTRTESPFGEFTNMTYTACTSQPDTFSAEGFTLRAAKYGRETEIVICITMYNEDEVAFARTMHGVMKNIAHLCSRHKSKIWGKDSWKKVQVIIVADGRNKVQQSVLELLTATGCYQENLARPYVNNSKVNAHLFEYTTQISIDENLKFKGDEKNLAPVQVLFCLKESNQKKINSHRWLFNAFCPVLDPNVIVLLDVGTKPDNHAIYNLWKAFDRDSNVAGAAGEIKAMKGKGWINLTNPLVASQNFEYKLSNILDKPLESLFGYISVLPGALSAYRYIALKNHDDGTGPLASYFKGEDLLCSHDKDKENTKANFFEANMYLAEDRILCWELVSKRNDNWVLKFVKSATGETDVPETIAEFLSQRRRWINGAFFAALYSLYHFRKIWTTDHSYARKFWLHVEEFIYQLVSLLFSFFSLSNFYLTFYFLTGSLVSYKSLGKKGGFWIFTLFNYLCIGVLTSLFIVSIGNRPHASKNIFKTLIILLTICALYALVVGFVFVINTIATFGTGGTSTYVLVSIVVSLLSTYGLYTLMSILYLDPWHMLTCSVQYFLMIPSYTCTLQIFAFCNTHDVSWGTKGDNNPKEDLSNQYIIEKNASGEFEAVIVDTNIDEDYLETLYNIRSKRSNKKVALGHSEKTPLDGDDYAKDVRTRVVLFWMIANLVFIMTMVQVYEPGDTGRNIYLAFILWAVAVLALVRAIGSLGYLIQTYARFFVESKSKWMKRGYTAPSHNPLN

In the case of “13-(4-tert-Butylbenzyl)-9-O-(4-isopropylbenzyl)berberrubine chloride [Compound No. 48]”, the “Relative activity Enzyme 1” value in [1] was 2 (Compounds having the inhibitory activity at 2-fold, 4-fold, 8-fold and 16-fold higher concentrations than that of polyoxin D were given the values of 4, 3, 2 and 1, respectively). In assay [2], the “Relative activity Enzyme 2” value was 5 (A compound having the same inhibitory activity as that of polyoxin D at the same concentration was given the value 5). Further, the “MIC (minimum inhibitory concentration)” value is 8 µg/mL in assay [3]; 4 µg/mL in assay [4]; 8 µg/mL in [5]; 1 µg/mL in assay [6]; 1 µg/mL in [7]; 2 µg/mL in [8]. The “MIC (minimum inhibitory concentration)” value in the assay on Candida krusei ATCC 6258 turned out to be 2 µg/mL; in assay [9], 4 µg/mL; in assay [10] it was 8 µg/mL; in assay [11] it was 1 µg/mL; in assay [12], 2 µg/mL; in assay [13] it was 8 µg/mL.

Turning to “13-(4-tert-Butylbenzyl)-9-O-(4-tert-butylbenzyl)berberrubine bromide [Compound No. 15]”, in assay [1], the “Relative activity Enzyme 1” value is 3 (Compounds having the inhibitory activity at 2-fold, 4-fold, 8-fold and 16-fold higher concentrations than that of polyoxin D were given the values of 4, 3, 2 and 1, respectively). In addition, the “Relative activity Enzyme 2” value in assay [2] is given as 5 (A compound having the same inhibitory activity as that of polyoxin D at the same concentration was given the value 5). Also, the “MIC (minimum inhibitory concentration)” value in [3] was 8 µg/mL; in [4], 4 µg/mL; in assay [5], 8 µg/mL; in [6] it was 1 µg/mL; in assay [7] it was 1 µg/mL; in assay [8] it was 4 µg/mL. In addition, the “MIC (minimum inhibitory concentration)” value is 4 µg/mL in the assay on Candida krusei ATCC 6258; 4 µg/mL in assay [9]; 8 µg/mL in assay [10]; 1 µg/mL in assay [11]; 2 µg/mL in assay [12]; 8 µg/mL in assay [13].

Consider “13-(4-tert-Butylbenzyl)-9-O-(4-tert-butylbenzyl)berberrubine chloride [Compound No. 47]”, for which the “Relative activity Enzyme 1” value in [1] was 2 (Compounds having the inhibitory activity at 2-fold, 4-fold, 8-fold and 16-fold higher concentrations than that of polyoxin D were given the values of 4, 3, 2 and 1, respectively). Besides, the “Relative activity Enzyme 2” value in [2] is on record as 5 (A compound having the same inhibitory activity as that of polyoxin D at the same concentration was given the value 5). Besides, the “MIC (minimum inhibitory concentration)” value in assay [3] came out at 8 µg/mL; in [4] it was 4 µg/mL; in [5], 8 µg/mL; in assay [6], 1 µg/mL; in assay [7], 1 µg/mL; in [8] it was 4 µg/mL. In addition, the “MIC (minimum inhibitory concentration)” value stood at 4 µg/mL against Candida krusei ATCC 6258; 4 µg/mL in assay [9]; 8 µg/mL in assay [10]; 1 µg/mL in [11]; 2 µg/mL in [12]; 8 µg/mL in assay [13].

For the substance “13-(4-tert-Butylbenzyl)-9-O-(6-chlorohexyl)berberrubine chloride [Compound No. 44]”, the “Relative activity Enzyme 1” value in [1] was 2 (Compounds having the inhibitory activity at 2-fold, 4-fold, 8-fold and 16-fold higher concentrations than that of polyoxin D were given the values of 4, 3, 2 and 1, respectively). For the same substance, the “Relative activity Enzyme 2” value in assay [2] was 6 (compounds having the inhibitory activity at ½, ¼ and ⅛ lower concentrations than that of polyoxin D were given the values of 6, 7 and 8, respectively). Further, the “MIC (minimum inhibitory concentration)” value in [3] amounted to 8 µg/mL; in [4], 2 µg/mL; in assay [5], 8 µg/mL; in assay [6], 0.5 µg/mL; in assay [7] it was 0.5 µg/mL; in assay [8], 2 µg/mL. For the same substance, the “MIC (minimum inhibitory concentration)” value turned out to be 1 µg/mL in the assay with Candida krusei ATCC 6258; 2 µg/mL in [9]; 2 µg/mL in assay [10]; 0.5 µg/mL in assay [11]; 1 µg/mL in assay [12]; 4 µg/mL in assay [13].

For the substance “13-(4-tert-Butylbenzyl)-9-O-(6-chlorohexyl)berberrubine iodide [Compound No. 12]”, the “Relative activity Enzyme 1” value in [1] is 2 (Compounds having the inhibitory activity at 2-fold, 4-fold, 8-fold and 16-fold higher concentrations than that of polyoxin D were given the values of 4, 3, 2 and 1, respectively). In assay [2], the “Relative activity Enzyme 2” value is 5 (A compound having the same inhibitory activity as that of polyoxin D at the same concentration was given the value 5). Moreover, the “MIC (minimum inhibitory concentration)” value in assay [3] was found to be 8 µg/mL; in assay [4] it was 2 µg/mL; in assay [5], 8 µg/mL; in [6], 0.5 µg/mL; in assay [7] it was 0.5 µg/mL; in assay [8] it was 2 µg/mL. For the same substance, the “MIC (minimum inhibitory concentration)” value with Candida krusei ATCC 6258 is 1 µg/mL; in [9] it was 2 µg/mL; in [10] it was 2 µg/mL; in [11] it was 0.5 µg/mL; in [12], 1 µg/mL; in [13], 4 µg/mL.

As for “13-(4-tert-Butylbenzyl)-9-O-allylberberrubine chloride [Compound No. 45]”, the “Relative activity Enzyme 1” value in assay [1] was 2 (Compounds having the inhibitory activity at 2-fold, 4-fold, 8-fold and 16-fold higher concentrations than that of polyoxin D were given the values of 4, 3, 2 and 1, respectively). Also, the “Relative activity Enzyme 2” value in assay [2] was 6 (compounds having the inhibitory activity at ½, ¼ and ⅛ lower concentrations than that of polyoxin D were given the values of 6, 7 and 8, respectively). For the same substance, the “MIC (minimum inhibitory concentration)” value in [3] is 8 µg/mL; in assay [4] it was 8 µg/mL; in [5] it was 8 µg/mL; in [6], 1 µg/mL; in assay [7] it was 1 µg/mL; in assay [8] it was 8 µg/mL. Moreover, the “MIC (minimum inhibitory concentration)” value against Candida krusei ATCC 6258 was found to be 2 µg/mL; in assay [9], 2 µg/mL; in [10], 4 µg/mL; in [11], 1 µg/mL; in assay [12] it was 2 µg/mL; in [13], 4 µg/mL.
